Here are results for 30 compounds from patent US20060223792A1, “Phenyl and pyridyl LTA4H modulators” (priority 2005, published 2006).

This assay has as its target T1, recombinant human LTA4 hydrolase (rhLTA4H) (Homo sapiens, UniProt P09960).
T1 construct: made in house; host or cells: Spodoptera frugiperda (Sf-9) cells, baculovirus (pFastBac1)
T1 sequence (P09960 1-611): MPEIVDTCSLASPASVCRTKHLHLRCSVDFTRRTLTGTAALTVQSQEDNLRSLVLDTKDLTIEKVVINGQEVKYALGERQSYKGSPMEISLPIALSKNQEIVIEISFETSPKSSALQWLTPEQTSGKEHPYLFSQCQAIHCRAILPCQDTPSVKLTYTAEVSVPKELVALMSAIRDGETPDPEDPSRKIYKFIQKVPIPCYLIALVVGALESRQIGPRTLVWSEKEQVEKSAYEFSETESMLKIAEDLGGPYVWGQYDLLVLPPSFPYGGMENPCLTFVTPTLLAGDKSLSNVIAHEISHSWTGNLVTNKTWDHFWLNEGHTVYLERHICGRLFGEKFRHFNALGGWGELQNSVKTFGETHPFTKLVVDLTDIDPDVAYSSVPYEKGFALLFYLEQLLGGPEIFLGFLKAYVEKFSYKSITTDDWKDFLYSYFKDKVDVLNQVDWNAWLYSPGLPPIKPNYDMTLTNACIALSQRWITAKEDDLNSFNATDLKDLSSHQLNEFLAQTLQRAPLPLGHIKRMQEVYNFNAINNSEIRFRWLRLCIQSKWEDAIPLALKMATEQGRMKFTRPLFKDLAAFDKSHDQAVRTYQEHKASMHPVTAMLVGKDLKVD
Briefly: Recombinant human LTA4 hydrolase assay for LTA4 hydrolase inhibitor activity. It counts as biochemical. The note with it: recombinant human LTA4H, LTB4 quantified by enzyme-linked immunoassay; average of one to three determinations; read-out: IC50. How it is done: Recombinant Human LTA4 Hydrolase Assay for LTA4 Hydrolase Inhibitor Activity
Compounds of the present invention were tested for LTA4 hydrolase inhibitor activity against recombinant human LTA4 hydrolase (rhLTA4H). Vectors were prepared and used to express rhLTA4H essentially as follows: LTA4 hydrolase encoding DNA was amplified by polymerase chain reaction (PCR) using a human placental cDNA library as a template. Oligonucleotide primers for the PCR reaction were based on the 5′-end, and the complement of the 3′-end, of the published nucleotide sequence for the coding region of the human LTA4 hydrolase gene (C. D. Funk et al., Proc. Natl. Acad. Sci. USA 1987, 84:6677-6681). The amplified […] DNA fragment encoding LTA4 hydrolase was isolated and cloned into the pFastBac1 vector (Invitrogen). Recombinant baculovirus was generated as described by the manufacturer, and used to infect Spodoptera frugiperda (Sf-9) cells. Recombinant LTA4 hydrolase enzyme was purified from the infected Sf-9 cells essentially as described by J. K. Gierse et al. (Protein Expr. Purif. 1993, 4(5):358-366). The purified enzyme solution was adjusted to contain 0.29 mg/mL LTA4 hydrolase, 50 mM Tris (pH 8.0),150 mM NaCl, 5 mM dithiothreitol, 50% glycerol, and EDTA-free Complete protease inhibitor cocktail (Roche). The specific activity of the enzyme was about 3.8 μmol/min/mg.
LTA4 substrate was prepared from the methyl ester of LTA4 (Cayman Chemical) by treatment with 67 equiv. of NaOH under nitrogen at rt for 40 min. The LTA4 substrate in its free acid form was kept frozen at −80° C. until needed. Each compound was diluted to different concentrations in assay buffer (0.1 M potassium phosphate (pH 7.4), 5 mg/mL fatty acid free BSA) containing 10% DMSO. A 25-μL aliquot of each compound dilution was incubated for 10 min at rt with an equal volume of assay buffer containing 36 ng of recombinant human LTA4H. The solution was then adjusted to 200 μL with assay buffer. LTA4 (free acid) was thawed and diluted in assay buffer to a concentration of 357 ng/mL, and 25 μL (9 ng) of LTA4 substrate was added to the reaction mixture (total volume=225 μL) at time zero. Each reaction was carried out at rt for 10 min. The reaction was stopped by diluting 10 μL of the reaction mixture with 200 μL of assay buffer. LTB4 was quantifiedin the diluted sample by a commercially available enzyme-linked immunoassay (Cayman Chemical Co.), as recommended by the manufacturer. Positive controls, under essentially identical conditions but without addition of an inhibitor compound, and negative controls, containing all assay components except enzyme, were routinely run in each experiment. IC50 values were determined by fitting the activity data at different compound concentrations to a 4-parameter equation using the Grafit program (Erithacus software).
The IC50 values presented in the table below should be expected to fall within the typical three-fold variability of assays of this type. The values presented here are, in general, an average of one to three determinations.

Molecules are shown by their SMILES.

One may read the IC50 as the concentration at which inhibition is half-maximal. In the case of `CN(CCC(=O)O)CCc1ccc(OCCc2ccccc2)cc1` [Example 88, 3-{Methyl-[2-(4-phenethyloxy-phenyl)-ethyl]-amino}-propionic acid], the IC50 amounted to 4 nM.

For the compound `CCOC(=O)CCN(CCc1ccc(OCCc2ccccc2)cc1)C1CCN(C(C)=O)CC1` [Example 90, 3-{(1-Acetyl-piperidin-4-yl)-[2-(4-phenethyloxy-phenyl)-ethyl]-amino}-propionic acid ethyl ester], the concentration for half-maximal inhibition (IC50) was 21 nM.

Consider `CC(=O)N1CCC(N(CCC(=O)O)CCc2ccc(OCCc3ccccc3)cc2)CC1` [Example 91, 3-{(1-Acetyl-piperidin-4-yl)-[2-(4-phenethyloxy-phenyl)-ethyl]-amino}-propionic acid], for which the half-inhibitory concentration (IC50) was 0.7 nM.

For `O=C(O)C1CCN(CCc2ccc(OCC(O)c3ccccc3)cc2)CC1` (stereo not drawn) [Example 92], the IC50 came out at 81 nM.

Regarding `O=C(O)C1CCN(Cc2ccc(OCCc3ccccc3)nc2)CC1` [Example 94, 1-(6-Phenethyloxy-pyridin-3-ylmethyl)-piperidine-4-carboxylic acid], the IC50 came out at 254 nM.

As for `c1ccc(CCOc2ccc(CN3CCCCC3)cc2)cc1` [Example 95, 1-(4-Phenethyloxy-benzyl)-piperidine], the half-inhibitory concentration (IC50) turned out to be 36 nM.

As to `c1ccc(CCCOc2ccc(CN3CCCCC3)cc2)cc1` [Example 97, 1-[4-(3-Phenyl-propoxy)-benzyl]-piperidine], the half-maximal inhibitory concentration (IC50) was 31 nM.

For the compound `c1ccc(CCCCOc2ccc(CN3CCCCC3)cc2)cc1` [Example 98, 1-[4-(4-Phenyl-butoxy)-benzyl]-piperidine], the IC50 came out at 167 nM.

As for `O=C1NCCC12CCN(Cc1ccc(OCCc3ccccc3)cc1)CC2` [Example 100, 8-(4-Phenethyloxy-benzyl)-2,8-diaza-spiro[4.5]decan-1-one], the IC50 was 121 nM.

`NC(=O)C1CCN(Cc2ccc(OCCc3ccccc3)cc2)CC1` [Example 101, 1-(4-Phenethyloxy-benzyl)-piperidine-4-carboxylic acid amide]: the IC50 amounted to 28 nM.

Take `NC(=O)C1CCCN(Cc2ccc(OCCc3ccccc3)cc2)C1` (stereo not drawn) [Example 102, 1-(4-Phenethyloxy-benzyl)-piperidine-3-carboxylic acid amide]: the 50% inhibitory concentration (IC50) came out at 36 nM.

As to `OC1CCN(Cc2ccc(OCCc3ccccc3)cc2)CC1` [Example 103, 1-(4-Phenethyloxy-benzyl)-piperidin-4-ol], the IC50 was determined as 70 nM.

On to `NC1CCN(Cc2ccc(OCCc3ccccc3)cc2)CC1` [Example 105, 1-(4-Phenethyloxy-benzyl)-piperidin-4-ylamine], for which the IC50 amounted to 25 nM.

Regarding `CCOC(=O)C1CCN(Cc2ccc(OCCCc3ccccc3)cc2)CC1` [Example 106, 1-[4-(3-Phenyl-propoxy)-benzyl]-piperidine-4-carboxylic acid ethyl ester], the IC50 amounted to 154 nM.

Consider `OC1CCN(Cc2ccc(OCCCc3ccccc3)cc2)CC1` [Example 108, 1-[4-(3-Phenyl-propoxy)-benzyl]-piperidin-4-ol], for which the concentration for half-maximal inhibition (IC50) was determined as 16 nM.

On to `OC1CCCN(Cc2ccc(OCCCc3ccccc3)cc2)C1` (stereo not drawn) [Example 109, 1-[4-(3-Phenyl-propoxy)-benzyl]-piperidin-3-ol], for which the IC50 was determined as 23 nM.

In the case of `NC(=O)C1CCN(Cc2ccc(OCCCc3ccccc3)cc2)CC1` [Example 110, 1-[4-(3-Phenyl-propoxy)-benzyl]-piperidine-4-carboxylic acid amide], the IC50 was 9 nM.

Consider `NC(=O)C1CCCN(Cc2ccc(OCCCc3ccccc3)cc2)C1` (stereo not drawn) [Example 111, 1-[4-(3-Phenyl-propoxy)-benzyl]-piperidine-3-carboxylic acid amide], for which the IC50 came out at 95 nM.

With `NC(=O)NC1CCN(Cc2ccc(OCCc3ccccc3)cc2)CC1` [Example 114, [1-(4-Phenethyloxy-benzyl)-piperidin-4-yl]-urea], the IC50 was 17 nM.

For the compound `COC(=O)NC1CCN(Cc2ccc(OCCc3ccccc3)cc2)CC1` [Example 115, [1-(4-Phenethyloxy-benzyl)-piperidin-4-yl]-carbamic acid methyl ester], the half-inhibitory concentration (IC50) is 78 nM.

`CCOC(=O)C1CCN(CCOc2ccc(OCCCc3ccccc3)cc2)CC1` [Example 116, 1-{2-[4-(3-Phenyl-propoxy)-phenoxy]-ethyl}-piperidine-4-carboxylic acid ethyl ester]: the IC50 turned out to be 195 nM.

As for `NC1CCN(Cc2ccc(OCCCc3ccccc3)cc2)CC1` [Example 118, 1-[4-(3-Phenyl-propoxy)-benzyl]-piperidin-4-ylamine], the IC50 was found to be 40 nM.

For `COC(=O)NC1CCN(Cc2ccc(OCCCc3ccccc3)cc2)CC1` [Example 121, {1-[4-(3-Phenyl-propoxy)-benzyl]-piperidin-4-yl}-carbamic acid methyl ester], the IC50 worked out at 8 nM.

Turning to `NC(=O)NC1CCN(Cc2ccc(OCCCc3ccccc3)cc2)CC1` [Example 122, {1-[4-(3-Phenyl-propoxy)-benzyl]-piperidin-4-yl}-urea], the IC50 was found to be 35 nM.

Regarding `O=C(Oc1ccc(OCCN2CCCCC2)cc1)C(Cl)c1ccccc1` (stereo not drawn) [Example 123, Chloro-phenyl-acetic acid 4-(2-piperidin-1-yl-ethoxy)-phenyl ester], the IC50 came to 150 nM.

Take `O=C(Oc1ccc(OCCN2CCCCC2)cc1)C1Cc2ccccc2C1` [Example 124, Indan-2-carboxylic acid 4-(2-piperidin-1-yl-ethoxy)-phenyl ester]: the IC50 is 184 nM.

Take `OC1c2ccccc2CC1Oc1ccc(OCCN2CCCCC2)cc1` (stereo not drawn) [Example 125, 2-[4-(2-Piperidin-1-yl-ethoxy)-phenoxy]-indan-1-ol]: the concentration for half-maximal inhibition (IC50) stood at 192 nM.

`O=C1c2ccccc2CC1Oc1ccc(OCCN2CCCCC2)cc1` (stereo not drawn) [Example 126, 2-[4-(2-Piperidin-1-yl-ethoxy)-phenoxy]-indan-1-one]: the IC50 was 64 nM.

Turning to `Fc1cccc(CCOc2ccc(OCCN3CCCCC3)cc2)c1` [Example 165, 1-(2-{4-[2-(3-Fluoro-phenyl)-ethoxy]-phenoxy}-ethyl)-piperidine], the IC50 was found to be 900 nM.

Turning to `Fc1ccc(CCOc2ccc(OCCN3CCCCC3)cc2)cc1` [Example 166, 1-(2-{4-[2-(4-Fluoro-phenyl)-ethoxy]-phenoxy}-ethyl)-piperidine], the IC50 worked out at 248 nM.
